Measured values taken from publication PMC7980221 (Molecular Cell, 2021).
Where two headings read alike, the source gives them in different places.

Tests used:
NavMs [1] = biological target: T1, NavMs (Magnetococcus marinus, UniProt A0L5S6); assay: cell-based
hNav1.2 = hNav1.2 (Homo sapiens, UniProt Q99250); assay: Whole-cell patch-clamp INa inhibition, hNav1.2 in HEK293 cells; type: cell-based
[2] = biological target: NavMs F208L mutant (NavMsL) (Magnetococcus marinus) (UniProt A0L5S6); assay: crystal structure
ER = details: cited from earlier work
[3] = biological target: NavMs E227D mutant channel (Magnetococcus marinus, UniProt A0L5S6, E227D); assay: cell-based
NavMs [4] = biological target: T1, NavMs; assay: Mechanism and kinetics of NavMs INa inhibition; type: cell-based
[5] = cited from earlier work
[6] = biological target: NavMs D220E mutant channel (Magnetococcus marinus, UniProt A0L5S6, D220E); assay: cell-based; type: cell-based
[7] = tested on: endogenous sodium currents of MDA-MB-231 cells (nNav1.5, Nav1.7); assay: Voltage clamp of endogenous sodium currents in MDA-MB-231 cells; type: cell-based; details: Homo sapiens, MDA-MB-231, read-out: Potency of sodium current inhibition (IC50), MDA-MD-231 cells

Chain of hNav1.2 (Q99250 whole entry): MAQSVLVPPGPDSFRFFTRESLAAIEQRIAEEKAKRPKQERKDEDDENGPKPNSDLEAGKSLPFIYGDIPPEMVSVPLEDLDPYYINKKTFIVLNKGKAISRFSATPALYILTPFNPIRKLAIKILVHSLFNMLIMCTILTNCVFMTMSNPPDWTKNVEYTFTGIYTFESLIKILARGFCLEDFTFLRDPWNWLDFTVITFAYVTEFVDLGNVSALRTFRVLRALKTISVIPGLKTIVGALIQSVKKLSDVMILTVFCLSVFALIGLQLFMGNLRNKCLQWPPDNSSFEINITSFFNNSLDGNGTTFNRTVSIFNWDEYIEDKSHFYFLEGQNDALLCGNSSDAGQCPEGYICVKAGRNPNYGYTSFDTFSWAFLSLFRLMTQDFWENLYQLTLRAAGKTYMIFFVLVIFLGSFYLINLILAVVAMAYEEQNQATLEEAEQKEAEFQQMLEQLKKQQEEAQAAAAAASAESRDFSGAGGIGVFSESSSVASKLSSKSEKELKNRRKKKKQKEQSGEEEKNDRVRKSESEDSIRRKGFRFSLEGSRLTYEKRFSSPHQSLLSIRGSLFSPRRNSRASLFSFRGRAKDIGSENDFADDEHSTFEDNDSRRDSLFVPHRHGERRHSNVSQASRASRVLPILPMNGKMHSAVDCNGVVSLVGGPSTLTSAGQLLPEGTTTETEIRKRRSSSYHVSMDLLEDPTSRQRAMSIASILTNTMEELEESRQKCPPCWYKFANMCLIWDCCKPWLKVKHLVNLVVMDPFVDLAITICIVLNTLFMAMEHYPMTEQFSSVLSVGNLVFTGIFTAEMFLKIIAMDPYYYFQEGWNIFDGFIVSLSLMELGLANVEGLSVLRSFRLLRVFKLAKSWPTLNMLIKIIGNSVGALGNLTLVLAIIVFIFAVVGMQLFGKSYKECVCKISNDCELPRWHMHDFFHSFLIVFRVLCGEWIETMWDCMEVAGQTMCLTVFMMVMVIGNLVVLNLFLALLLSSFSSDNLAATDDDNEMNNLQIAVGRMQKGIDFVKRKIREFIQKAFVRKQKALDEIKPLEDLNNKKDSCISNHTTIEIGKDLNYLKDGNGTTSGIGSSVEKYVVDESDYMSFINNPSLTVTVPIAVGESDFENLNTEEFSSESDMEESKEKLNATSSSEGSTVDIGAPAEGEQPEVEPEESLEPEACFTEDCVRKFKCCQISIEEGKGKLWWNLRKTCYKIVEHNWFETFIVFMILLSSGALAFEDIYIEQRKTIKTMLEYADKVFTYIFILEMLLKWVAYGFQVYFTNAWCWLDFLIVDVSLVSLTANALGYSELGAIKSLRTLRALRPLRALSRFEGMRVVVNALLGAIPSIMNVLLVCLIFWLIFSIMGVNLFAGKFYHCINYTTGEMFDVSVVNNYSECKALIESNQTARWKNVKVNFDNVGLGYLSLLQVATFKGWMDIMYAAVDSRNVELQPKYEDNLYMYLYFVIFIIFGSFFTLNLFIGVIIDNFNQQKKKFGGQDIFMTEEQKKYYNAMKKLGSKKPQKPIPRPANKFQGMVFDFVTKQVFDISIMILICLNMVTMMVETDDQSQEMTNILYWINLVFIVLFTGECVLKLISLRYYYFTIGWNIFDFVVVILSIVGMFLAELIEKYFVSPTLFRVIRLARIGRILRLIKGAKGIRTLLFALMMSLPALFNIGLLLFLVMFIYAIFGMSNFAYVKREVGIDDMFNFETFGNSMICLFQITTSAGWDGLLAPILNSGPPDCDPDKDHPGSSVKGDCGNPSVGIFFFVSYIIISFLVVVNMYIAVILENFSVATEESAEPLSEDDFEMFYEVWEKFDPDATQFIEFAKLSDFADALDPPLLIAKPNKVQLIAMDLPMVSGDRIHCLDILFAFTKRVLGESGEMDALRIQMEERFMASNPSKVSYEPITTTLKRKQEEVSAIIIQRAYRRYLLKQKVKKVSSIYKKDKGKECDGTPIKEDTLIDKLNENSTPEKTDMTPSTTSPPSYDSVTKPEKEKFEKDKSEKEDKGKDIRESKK

## CC/C(=C(/c1ccc(O)cc1)c1ccc(OCCN(C)C)cc1)c1ccccc1.Cl [E-4OH-Tam, E-4-Hydroxytamoxifen hydrochloride]
NavMs [1]; value in parentheses, error SD
  Average slope of the Hill fit, NavMs, HEK cells: 1.15 ± 0.1
hNav1.2; value in parentheses, error SD
  Average slope of the Hill fit, NaV1.2, HEK cells: 0.94 ± 0.1

## NavMs F208L mutant (NavMsL) (from UniProt A0L5S6 1-274) (natural protein)
[2]
  stoichiometry N: 4

## CC/C(=C(\c1ccc(O)cc1)c1ccc(OCCNC)cc1)c1ccccc1 [Endoxifen]
NavMs [1]
  IC50: 328 ± 89 nM
NavMs [1]; value in parentheses, error SD
  Average slope of the Hill fit, NavMs, HEK cells: 1.09 ± 0.1
hNav1.2
  IC50: 3100 ± 130 nM
hNav1.2; value in parentheses, error SD
  Average slope of the Hill fit, NaV1.2, HEK cells: 0.97 ± 0.1

## CC/C(=C(\c1ccccc1)c1ccc(OCCN(C)C)cc1)c1ccccc1 [Tamoxifen]
hNav1.2
  Average slope of the Hill fit, NaV1.2, HEK cells: 2.4 ± 0.11 μM (1.05 ± 0.1)
  IC50: 2400 nM

## CC/C(=C(\c1ccc(O)cc1)c1ccc(OCCN(C)C)cc1)c1ccccc1.Cl [Z-4OH-Tam, Z-4-Hydroxytamoxifen hydrochloride]
NavMs [1]; value in parentheses, error SD
  Average slope of the Hill fit, NavMs, HEK cells: 1.05 ± 0.1
hNav1.2; value in parentheses, error SD
  Average slope of the Hill fit, NaV1.2, HEK cells: 0.95 ± 0.1

## CC/C(=C(\c1ccccc1)c1ccc(OCCNC)cc1)c1ccccc1 [NM-Tam, N-desmethyltamoxifen]
NavMs [1]
  Average slope of the Hill fit, NavMs, HEK cells: 1.1 ± 0.16 μM (1.11 ± 0.1)
NavMs [1]; read-out: Potency of sodium current inhibition (IC50), NavMs, HEK cells
  IC50: 1100 nM
ER
  Affinity for ER, times lower than that of tamoxifen: ~100 times
hNav1.2
  Average slope of the Hill fit, NaV1.2, HEK cells: 3.2 ± 0.12 μM (0.96 ± 0.1)
hNav1.2; read-out: Potency of sodium current inhibition (IC50), NaV1.2, HEK cells
  IC50: 3200 nM

## CC/C(=C(\c1ccc(O)cc1)c1ccc(OCCN(C)C)cc1)c1ccccc1 [4OH-Tam, 4-hydroxytamoxifen]
NavMs [1]
  IC50: 297 ± 75 nM
NavMs [1]; value in parentheses, error SD
  Average slope of the Hill fit, NavMs, HEK cells: 1.14 ± 0.1
[3]
  IC50: 2800 ± 160 nM
[3]; value in parentheses, error SD
  Average slope of the Hill fit, E227D, HEK cells: 1.13 ± 0.1
NavMs [4]
  Delay of rate of recovery from inactivation (τrec) following drug treatment: ~10 fold
  INa inhibition with 7 ms vs 150 ms depolarization trains, times less: 3.4 times
  Kinetics of INa inhibition (τon), times slower than cadmium: 16 times
  Shift of voltage dependence of activation and inactivation: no significant shifts in either parameter
hNav1.2
  IC50: 2100 ± 140 nM
hNav1.2; value in parentheses, error SD
  Average slope of the Hill fit, NaV1.2, HEK cells: 0.96 ± 0.1
[5]
  Potency in vivo as an anti-estrogen relative to tamoxifen: 30- to 100 fold
[6]
  IC50: 3600 ± 140 nM
  Loss in free energy of binding (ΔG°): 1.5 kcal/mol
[6]; value in parentheses, error SD
  Average slope of the Hill fit, D220E, HEK cells: 1.17 ± 0.1
[7]
  IC50: 890 nM
